Experimental data as given in the supplement of paper PMC11061612.

Columns and labels:
Test in all cases: Bliss excess, mean over the matrix (fraction); higher = more synergy
[1] = system: AMO-1 (Plasma Cell Myeloma)
How it was run: (§1)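 Bliss excess equals the observed combination effect minus the expected value EA + EB − EA·EB, where EA and EB are the effects of each agent alone. Combination Emax is the second-highest inhibition within the matrix. Inhibition was scaled from CellTiter-Glo 2.0 luminescence, with 0 set by vehicle wells and 1 by blank wells, after 72 hours of two-drug dosing of cells plated in 1536-well plates.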

[2] = system: BT-549 (Breast Carcinoma)
How it was run: as §1

[3] = system: C-4-I (Cervical Carcinoma)
How it was run: as §1

D-263MG (Glioblastoma) = system: D-263MG (Glioblastoma)
How it was run: as §1

[4] = system: EFM-19 (Breast Carcinoma)
How it was run: as §1

EW-24 (Ewing's Sarcoma) = system: EW-24 (Ewing's Sarcoma)
How it was run: as §1

[5] = system: EoL-1-cell (Acute Myeloid Leukemia)
How it was run: as §1

[6] = system: HGC-27 (Gastric Carcinoma)
How it was run: as §1

[7] = system: MIA-PaCa-2 (Pancreatic Carcinoma)
How it was run: as §1

[8] = system: MLMA (Other Blood Carcinomas)
How it was run: as §1

NB69 (Neuroblastoma) = system: NB69 (Neuroblastoma)
How it was run: as §1

[9] = system: NCI-H1915 (Non-Small Cell Lung Carcinoma)
How it was run: as §1

[10] = system: NCI-H727 (Other Solid Carcinomas)
How it was run: as §1

[11] = system: OVCAR-4 (Ovarian Carcinoma)
How it was run: as §1

PWR-1E (Non-Cancerous) = system: PWR-1E (Non-Cancerous)
How it was run: as §1

[12] = system: RF-48 (B-Cell Non-Hodgkin's Lymphoma)
How it was run: as §1

[13] = system: SU8686 (Pancreatic Carcinoma)
How it was run: as §1

[14] = system: SW13 (Other Solid Carcinomas)
How it was run: as §1

UACC-62 (Melanoma) = system: UACC-62 (Melanoma)
How it was run: as §1

[15] = system: VA-ES-BJ (Other Solid Carcinomas)
How it was run: as §1

COc1cccc(OCCCN)c1-c1cc(Nc2cnc(C#N)cn2)n[nH]1 [Prexasertib] + CCc1c2c(nc3ccc(O)cc13)-c1cc3c(c(=O)n1C2)COC(=O)[C@]3(O)CC [SN-38] (first compound max 1 µM, 7x7, partner max 0.3 µM)
Bliss excess [1]: -0.04
Bliss excess [2]: -0.0474
Bliss excess [3]: 0.0026
Bliss excess (D-263MG (Glioblastoma)): 0.0688
Bliss excess [4]: 0.155
Bliss excess (EW-24 (Ewing's Sarcoma)): -0.0615
Bliss excess [5]: -0.0317
Bliss excess [6]: 0.0388
Bliss excess [7]: 0.0334
Bliss excess [8]: -0.0732
Bliss excess (NB69 (Neuroblastoma)): -0.0556
Bliss excess [9]: 0.0086
Bliss excess [10]: -0.0425
Bliss excess [11]: 0.0476
Bliss excess (PWR-1E (Non-Cancerous)): 0.0309
Bliss excess [12]: -0.0572
Bliss excess [13]: 0.02
Bliss excess [14]: 0.0459
Bliss excess (UACC-62 (Melanoma)): -0.042
Bliss excess [15]: -0.044
